Source: patent EP0640690A1, “Monoclonal antibodies specific for 5-dihydrotestosterone” (ELI LILLY AND COMPANY, priority 1993, dated 1995)

Assays:
[1] = tested on: 5-α-reductase enzyme from a female rat liver preparation; test: 5-α-reductase inhibitor assay: 5-DHT formed from testosterone measured by MoAb 276-1 ELISA; format: biochemical; details: concentration inhibiting 100% of activity; testosterone substrate, NADPH, pH 6.5, 37°C, 20 minutes; one experiment
Description: This reaction mixture was incubated at 37°C for 20 minutes. The enzyme was then inactivated by incubating the reaction mixture at 80°C for 10 minutes. […] In additon, serial dilutions of the reaction mixture were made and 100 µl of each of these dilutions was added to separate wells. To each well was added 100 µl (0.35 µg) of MoAb 276-1. This plate was then incubated at 37°C for 2 hours. After this incubation period, the plate was washed four times with phosphate buffered saline (PBS). After the washing, 200 µl of anti-mouse antibody/alkaline phosphatase conjugate was added to each well. This was then incubated at 37°C for 1 hour. After the incubation each well was washed four times with PBS. To each well was then added 200 µl of p-nitrophenylphosphate. This reaction was then incubated for one hour at 37°C. Spectrophotometric measurement of each well was then performed, reading at 410 nm. This measurement provided the baseline activity of 5-α-reductase activity without an inhibitor. […] This compound was prepared as described in U.S. Patent 5,239,075, issued August 24, 1993, which is herein incorporated by reference.

[2] = tested on: monoclonal antibody MoAb 276-1 (anti-5-dihydrotestosterone, hybridoma ATCC HB 11410); test: competitive ELISA: competition with bound avidin/5-DHT complex for the antibody; format: binding, mouse; details: for IC50: concentration inhibiting 50% of antibody binding to immobilized avidin/5-DHT, read-out: IC₅₀
Description: The usual method of quantifying specificity of an antibody is by way of a competitive ELISA assay, a technique which is well known to one of skill in the art. In such an assay the reactivity is determined by binding an avidin/5-DHT complex to a support, such as a well in a microtiter plate, as described infra. A limited amount of anti-5-DHT antibody (such as MoAb 276-1) is then added simultaneously with differing concentrations of 5-dihydrotestosterone, which competes with the bound 5-DHT for the antibody. Unbound antibody is then removed from the wells. The concentration of 5-dihydrotestosterone which inhibits 50% of the binding of the antibody is designated as the IC₅₀. The experiment is run in parallel using testosterone in place of the 5-dihydrotestosterone. The IC₅₀ of the testosterone is then compared with the IC₅₀ of the 5-dihydrotestosterone to give a relative binding affinity.
The most preferred antibody of this invention, MoAb 276-1, has an IC₅₀ of 537 nM for 5-dihydrotestosterone, while an IC₅₀ of 4568 nM was obtained for testosterone. This antibody, therefore, is 8.5 times more specific for 5-dihydrotestosterone than for testosterone. The hybridoma producing the monoclonal antibody MoAb 276-1 is available from the American Type Culture […] (ATCC) in Rockville, Maryland, 20852 under accession number ATCC HB 11410.

SMILES | IC₁₀₀ [1] [µM] | IC50 [2] [nM] | times more specific for 5-dihydrotestosterone than for testosterone ([2]; ratio of IC₅₀ of testosterone to IC₅₀ of 5-dihydrotestosterone) [times]
Cc1ccc2c(c1)CC[C@@H]1[C@@H]2CCC(=O)N1C (racemic) [trans-dl-4,8-dimethyl-1,2,3,4,4a,5,6,10b-octahydrobenzo-[f]quinolin-3-one] | 0.3 | – | –
C[C@]12CCC(=O)C[C@@H]1CC[C@@H]1[C@@H]2CC[C@]2(C)[C@@H](O)CC[C@@H]12 [5-dihydrotestosterone, 17β-hydroxy-5α-androstan-3-one] | – | 537 | 8.5
C[C@]12CC[C@H]3[C@@H](CCC4=CC(=O)CC[C@@]43C)[C@@H]1CC[C@@H]2O [testosterone] | – | 4570 | –
